Data on 1 compound can be found in patent US20190177279A1, “CARBOXYLIC ACID AROMATIC 1,2-CYCLOPROPYLAMIDES” (Bayer Pharma Aktiengesellschaft, priority 2017, published 2019).

One data set has as its system stimulated IMR-90 cells. Briefly: Cell viability, CellTiter-Glo Luminescent Assay. The data set is classed as cell-based, human. The procedure:
IMR-90 cells were cultured in Eagle's Minimum Essential Medium (EMEM) containing 2 mM L-glutamine, 1 g/L glucose, 1.5 g/L NaHCO3, 1 mM sodium pyruvate and non-essential amino acids (ATCC, 30-2003™) supplemented with 10% FBS (Biochrom, 50615) and 50 U/mL Penicillin, 50 μg/mL Streptomycin (PAA, P11-010). The assay was performed in EMEM and a cell density of […] IMR-90 cells/96-well. The compound examples were serially diluted in 100% DMSO and evaluated at 8 different concentrations within the range of 3 nM and 10 μM and a final DMSO concentration of 0.4%. The IMR-90 cells were incubated with the respective concentration of the compound for 30 min. […] The amount of IL-6 and IL-8 in the supernatant was determined using the Human ProInflammatory Panel II (4-Plex) (MSD, K15025B) according to manufacturer's instruction. […] Plates were washed three times with phosphate-buffered saline (PBS; 137 mM NaCl, 2.7 mM KCl, 6.5 mM Na2HP04, 1.7 mM KH2P04) containing 0.05% Tween-20 (Bio-Rad, 161-0781) and electrochemiluminescence detected using the MSD Sector Imager 6000 plate reader. The cell viability was measured using the CellTiter-Glo Luminescent Assay (Promega, G7571) following the manufacturers protocol. […] After incubation and shaking for 10 minutes luminescent signal was measured which was proportional to the amount of ATP present. […]
(In general: Cellular ATP, detected with luciferase, serves as a proxy for viable cell number.)

A further data set has as its system IL-8 secretion. The data set is described as follows: Bradykinin B1 receptor agonist-induced secretion of IL-8 in human IMR-90 cells. Particulars: 0.1 μM Lys-[Des-Arg9]Bradykinin and 0.1 μM Sar-[D-Phe8]-des-Arg9-Bradykinin, 5 hours. The data set is classed as cell-based. The source says:
Inhibitory Activity on Bradykinin B1 Receptor Agonist-Induced Secretion of IL-6 and IL-8 in Human IMR-90 Cells
The effect of the compound examples on secretion of the cytokine IL-6 and IL-8 was investigated in the human foetal lung fibroblast IMR-90 cell line. Here the induction of the cytokine secretion was induced by the Bradykinin B1 receptor agonists Lys-[Des-Arg9]Bradykinin (CAS 71800-36-7, Tocris Bioscience) and Sar-[D-Phe8]-des-Arg9-Bradykinin (CAS 126959-88-4, Tocris Bioscience) leading to the activation of the Bradykinin B1-driven signalling pathway. […]
IMR-90 cells were cultured in Eagle's Minimum Essential Medium (EMEM) containing 2 mM L-glutamine, 1 g/L glucose, 1.5 g/L NaHCO3, 1 mM sodium pyruvate and non-essential amino acids (ATCC, 30-2003™) supplemented with 10% FBS (Biochrom, 50615) and 50 U/mL Penicillin, 50 μg/mL Streptomycin (PAA, P11-010). […] The compound examples were serially diluted in 100% DMSO and evaluated at 8 different concentrations within the range of 3 nM and 10 μM and a final DMSO concentration of 0.4%. […] The amount of IL-6 and IL-8 in the supernatant was determined using the Human ProInflammatory Panel II (4-Plex) (MSD, K15025B) according to manufacturer's instruction. […] The cell viability was measured using the CellTiter-Glo Luminescent Assay (Promega, G7571) following the manufacturers protocol. […]

Turning to `O=C(O)c1cc(NC(=O)C2CC2c2ccc(Cl)cc2)cc(F)c1-c1cnn(C2CCC2)c1` (racemic) [Example 2, 5-({[2-(4-chlorophenyl)cyclopropyl]carbonyl}amino)-2-(1-cyclobutyl-1H-pyrazol-4-yl)-3-fluorobenzoic acid], the “effect on the cell viability” value in the data set on stimulated IMR-90 cells is given as “no effect”. Further, in the data set on IL-8 secretion, the IC50 (in general, the midpoint of a concentration-inhibition curve) was 0.185 µM.
